Holding throughout (assay type): functional
The subject of test [1] is Musca domestica. The experiment in a line: Insecticidal activity against second-instar larval stage of Musca domestica (house fly) assessed as mortality at 5 ug/mg applied topically on thoracic tergite after 12 hr relative to control.
The subject of test [2] is Ascia monuste. The experiment in a line: Insecticidal activity against second-instar larval stage of Ascia monuste orseis assessed as mortality at 5 ug/mg applied topically on thoracic tergite after 24 hr (reference value: 1.7%).
Test [3] concerns Tuta absoluta. The test is described as follows: Insecticidal activity against second-instar larval stage of Tuta absoluta assessed as mortality at 5 ug/mg applied topically on thoracic tergite after 12 hr (reference value: 1.7%).
Test [4] concerns Periplaneta americana. The experiment in a line: Insecticidal activity against second-instar nymph stage of Periplaneta americana (American cockroach) assessed as mortality at 5 ug/mg applied topically on thoracic tergite after 24 hr (reference value: 1.7%).
Test [5] has as its system Musca domestica. The test is described as follows: Insecticidal activity against second-instar larval stage of Musca domestica (house fly) assessed as mortality at 5 ug/mg applied topically on thoracic tergite after 24 hr relative to control.
In test [6] the test system is Sitophilus zeamais. The test is described as follows: Insecticidal activity against […] Sitophilus zeamais assessed as mortality at 5 ug/mg applied topically on thoracic tergite after 24 hr relative to control.
Test [7] has as its system Sitophilus zeamais. The experiment in a line: Insecticidal activity against […] Sitophilus zeamais assessed as mortality at 5 ug/mg applied topically on thoracic tergite after 12 hr relative to control.
Test [8] relates to Ascia monuste. The experiment in a line: Insecticidal activity against second-instar larval stage of Ascia monuste orseis assessed as mortality at 5 ug/mg applied topically on thoracic tergite after 12 hr relative to control.
Test [9] deals with Tuta absoluta. The test is described as follows: Insecticidal activity against second-instar larval stage of Tuta absoluta assessed as mortality at 5 ug/mg applied topically on thoracic tergite after 24 hr (reference value: 1.7%).
The subject of test [10] is Periplaneta americana. The test is described as follows: Insecticidal activity against second-instar nymph stage of Periplaneta americana (American cockroach) assessed as mortality at 5 ug/mg applied topically on thoracic tergite after 12 hr (reference value: 1.7%).

In ChEMBL document CHEMBL3045231, “Synthesis and insecticidal activity of new pyrethroids” (2009) one finds mortality data, which are given here for eleven compounds.

The mortality is the percentage killed. As to `COC(=O)[C@H]1[C@H](/C=C/c2ccc(Br)cc2)C1(C)C`, the mortality stood at 12.5% with Musca domestica [1]; 85% in the test on Ascia monuste [2]; 15% in the test with Tuta absoluta [3]; 65% in the test on Periplaneta americana [4]; 22.5% with Musca domestica [5]; 0% in the test with Sitophilus zeamais [6]. Besides, the mortality stood at 0% in the test on Sitophilus zeamais [7], 5% in the test on Ascia monuste [8], 25% with Tuta absoluta [9] and 55% with Periplaneta americana [10].
In the case of `COC(=O)[C@H]1[C@H](/C=C\c2ccc(Cl)cc2)C1(C)C`, the mortality with Musca domestica [1] was 20%; with Ascia monuste [2], 90%; with Tuta absoluta [3], 100%; with Periplaneta americana [4], 100%; with Musca domestica [5] it was 25%; with Sitophilus zeamais [6] it was 0%. For the same compound, the mortality amounted to 0% with Sitophilus zeamais [7], 85% in the test with Ascia monuste [8], 100% with Tuta absoluta [9] and 92.5% in the test on Periplaneta americana [10].
Turning to `COC(=O)[C@H]1[C@H](/C=C/c2ccc(Cl)cc2)C1(C)C`, the mortality in the test with Musca domestica [1] was 17.5%; in the test on Ascia monuste [2], 82.5%; with Tuta absoluta [3] it was 67.5%; in the test on Periplaneta americana [4], 95%; in the test with Musca domestica [5] it was 22.5%; in the test with Sitophilus zeamais [6], 0%. Besides, the mortality in the test on Sitophilus zeamais [7] amounted to 0%; with Ascia monuste [8], 80%; with Tuta absoluta [9], 72.5%; in the test on Periplaneta americana [10], 87.5%.
In the case of `COC(=O)[C@H]1[C@H](/C=C\c2ccc(F)cc2)C1(C)C`, the mortality in the test with Musca domestica [1] stood at 12.5%; with Ascia monuste [2], 92.5%; with Tuta absoluta [3], 87.5%; in the test with Periplaneta americana [4], 67.5%; in the test on Musca domestica [5], 15%; in the test with Sitophilus zeamais [6], 10%. Moreover, the mortality worked out at 7.5% in the test on Sitophilus zeamais [7], 67.5% in the test with Ascia monuste [8], 90% in the test with Tuta absoluta [9] and 65% in the test on Periplaneta americana [10].
For `COC(=O)[C@H]1[C@H](/C=C/c2ccc(F)cc2)C1(C)C`, the mortality in the test with Musca domestica [1] is 10%; in the test with Ascia monuste [2], 90%; in the test with Tuta absoluta [3], 60%; in the test with Periplaneta americana [4] it was 67.5%; in the test on Musca domestica [5] it was 15%; with Sitophilus zeamais [6], 7.5%. Besides, the mortality in the test with Sitophilus zeamais [7] came to 5%; in the test with Ascia monuste [8], 65%; with Tuta absoluta [9], 77.5%; in the test with Periplaneta americana [10] it was 62.5%.
Turning to `COC(=O)[C@H]1[C@H](/C=C\c2ccccc2)C1(C)C`, the mortality with Musca domestica [1] worked out at 7.5%; with Ascia monuste [2] it was 50%; with Tuta absoluta [3] it was 12.5%; in the test with Periplaneta americana [4], 37.4%; in the test on Musca domestica [5], 12.5%; in the test with Sitophilus zeamais [6], 12.5%. Moreover, the mortality is given as 10% in the test with Sitophilus zeamais [7], 7.5% in the test on Ascia monuste [8], 21.9% in the test with Tuta absoluta [9] and 15.6% in the test on Periplaneta americana [10].
For the compound `COC(=O)[C@H]1[C@H](/C=C/c2ccccc2)C1(C)C`, the mortality is 7.5% in the test on Musca domestica [1]; 50% with Ascia monuste [2]; 12.5% in the test on Tuta absoluta [3]; 37.4% in the test with Periplaneta americana [4]; 12.5% in the test on Musca domestica [5]; 12.5% in the test with Sitophilus zeamais [6]. Further, the mortality with Sitophilus zeamais [7] is recorded as 10%; in the test on Ascia monuste [8] it was 7.5%; in the test on Tuta absoluta [9], 21.9%; in the test on Periplaneta americana [10] it was 15.6%.
With `COC(=O)[C@H]1[C@H](/C=C\c2ccc([N+](=O)[O-])cc2)C1(C)C`, the mortality was determined as 20% in the test on Musca domestica [1]; 45% in the test on Ascia monuste [2]; 42.5% with Tuta absoluta [3]; 24.3% in the test with Periplaneta americana [4]; 27.5% in the test with Musca domestica [5]; 0% in the test with Sitophilus zeamais [6]. Also, the mortality with Sitophilus zeamais [7] turned out to be 0%; with Ascia monuste [8] it was 20%; with Tuta absoluta [9] it was 67.5%; in the test on Periplaneta americana [10], 10.9%.
As for `COC(=O)[C@H]1[C@H](/C=C/c2ccc([N+](=O)[O-])cc2)C1(C)C`, the mortality in the test on Musca domestica [1] was 17.5%; in the test with Ascia monuste [2], 36.4%; in the test with Tuta absoluta [3], 35%; in the test on Periplaneta americana [4], 20%; with Musca domestica [5] it was 25%; in the test on Sitophilus zeamais [6], 0%. The mortality with Sitophilus zeamais [7] is reported as 0%; in the test on Ascia monuste [8] it was 2.5%; with Tuta absoluta [9], 55%; with Periplaneta americana [10], 10%.
Turning to `COC(=O)[C@H]1[C@H](/C=C\c2ccc(Br)cc2)C1(C)C`, the mortality with Musca domestica [1] was 15%; with Ascia monuste [2] it was 85%; in the test with Tuta absoluta [3] it was 15.6%; in the test with Periplaneta americana [4], 72.5%; in the test with Musca domestica [5] it was 25%; in the test on Sitophilus zeamais [6] it was 0%. The mortality in the test with Sitophilus zeamais [7] came out at 0%; in the test on Ascia monuste [8], 15%; in the test on Tuta absoluta [9], 18.1%; in the test with Periplaneta americana [10], 70%.
As to `CC1(C)C(C=C(Cl)Cl)C1C(=O)OCc1cccc(Oc2ccccc2)c1` (stereo not given) [PERMETHRIN], the mortality in the test with Musca domestica [1] stood at 72.5%; in the test on Ascia monuste [2], 100%; in the test with Tuta absoluta [3], 93.2%; in the test on Periplaneta americana [4] it was 97.5%; with Musca domestica [5] it was 72.5%; in the test on Sitophilus zeamais [6] it was 17.5%. Besides, the mortality came to 17.5% in the test with Sitophilus zeamais [7], 100% in the test with Ascia monuste [8], 97.5% with Tuta absoluta [9] and 87.5% in the test with Periplaneta americana [10].
